The source of these data is patent US8142821B2, “Xanthohumol-enriched hop extract” (Flazan GmbH & Co. KG, priority 2007, dated 2012).

SMILES strings stand for the structures. In brackets after ≈: the same amount, converted by molar mass.

One assay is described as follows: SOD antioxidant assay. To be noted: among hop components.
The nature of assay [1]: HORAC, hydroxyl radical ORAC. The following applies: among hop components. As to the method: (§1) [table] […] The SOAC scores are not included in this figure; ORAC values used are the sum of lipophilic and hydrophilic results. For each assay category, scaling was made logarithmic so that the plot on the chart resembles the associated rating. […] The larger the spatial area, the higher the overall antioxidative capacity. […] Both hydrophilic and lipophilic oxygen radical absorbance capacity (ORAC) assays were carried out at Brunswick Laboratory (Wareham, Mass.) based on the modified ORACfl method reported by Ou et al. (2001 J. Agric. Food Chem. 49: 4619-4626, 2002 J. Agr. Food Chem. 50: 3122-3128). Trolox, a water-soluble vitamin E analog, was used as the calibration standard. The data are expressed as mmole of Trolox equivalents per gram (mmol TE/g). […] Hydroxyl radical ORAC (HOR-AC) is expressed as mmole caffeic acid equivalent per gram (mmol CAE/g). […] The peroxyl nitrite ORAC (NORAC) result is expressed as mmol TE/g. Alpha-tocopherol (vitamin E) was used as the calibration standard, and the singlet oxygen absorbance capacity (SOAC) result is expressed as mmole a-tocopherol equivalent (mmol VtE) per gram (Aubry et al. 1989 J. Org. Chem. 54: 726-728). […] Radical-scavenging activity was measured by the change in absorbance at 517 nm with the DPPH result expressed as mmol TE/g. […] The FRAP result is expressed as mmol TE/g (Ou et al. J. Agric. Food Chem. 49: 4619-4626). […]

Assay [2] is described as follows: ORAC-Total (ORAClipo + ORAChydro). The following applies: among hop components. The protocol: In the present work, the ORAC value is expressed as the sum of values of both the water-soluble and fat-soluble parts. Green tea catechins (Polyphenon 60) were used as the control with the highest ORAC value among edible plants. Vitamin C and vitamin E were used as controls for water- and fat-soluble molecules, respectively. Both hydrophilic and lipophilic oxygen radical absorbance capacity (ORAC) assays were carried out at Brunswick Laboratory (Wareham, Mass.) based on the modified ORACfl method reported by Ou et al. (2001 J. Agric. Food Chem. 49: 4619-4626, 2002 J. Agr. Food Chem. 50: 3122-3128). Trolox, a water-soluble vitamin E analog, was used as the calibration standard. The data are expressed as mmole of Trolox equivalents per gram (mmol TE/g). […] Hydroxyl radical ORAC (HOR-AC) is expressed as mmole caffeic acid equivalent per gram (mmol CAE/g). […] The peroxyl nitrite ORAC (NORAC) result is expressed as mmol TE/g. Alpha-tocopherol (vitamin E) was used as the calibration standard, and the singlet oxygen absorbance capacity (SOAC) result is expressed as mmole a-tocopherol equivalent (mmol VtE) per gram (Aubry et al. 1989 J. Org. Chem. 54: 726-728). […] Radical-scavenging activity was measured by the change in absorbance at 517 nm with the DPPH result expressed as mmol TE/g. […] The FRAP result is expressed as mmol TE/g (Ou et al. J. Agric. Food Chem. 49: 4619-4626). […]

Assay [3] in a line: FRAP, ferric reducing antioxidative power. To be noted: among hop components. The protocol:
as §1

The subject of the next assay is S. pyogenes (ATCC 14289). Put plainly: Antimicrobial susceptibility, broth dilution. The format is cell-based. The following applies: Streptococcus pyogenes, ATCC14289; lowest concentration required to kill. The protocol: (§2) The antibacterial effects of seven hops components against five different strains of bacteria involved in primary or secondary skin and soft tissue infections was evaluated, with broth dilution methods. […] Antimicrobial susceptibility testing was performed using a broth dilution method. Gentamicin or ampicillin was used as a control to verify the methodology. A stock solution (20 mg/ml) of the test substance (or vehicle control) was prepared in dimethyl sulfoxide. Serial dilution was done in microwell plates. Reinforced Clostridial Medium was used for P. acnes (ATCC 6919). Three hundreds […] of the test substance was added to the test tube containing P. acnes (10^5 CFU/ml) in 2.7 ml of cultures grown under anaerobic conditions. Mueller-Hinston Broth suitable for culturing S. epidermidis (ATCC 12228), K. rhizophila (formerly M. luteus) (ATCC 9341), and S. aureus (ATCC […]), and Brain Heart Infusion Broth suitable for culturing S. pyogenes (ATCC 14289) were used. A total of […] of the test substance was added to the test tube containing the other microorganisms (10^5 CFU/ml) in 0.9 ml of cultures grown under controlled conditions. […] Samples from those tubes that scored positive was plated onto an agar plate and incubated under controlled conditions.
(In general: Dilution methods test growth across graded concentrations, often in twofold steps.)

Another assay concerns P. acnes (ATCC 6919). In words: Antimicrobial susceptibility, broth dilution. The format is cell-based. To be noted: Cutibacterium acnes, ATCC6919; lowest concentration required to kill. As to the method:
as §2

Assay [4] concerns S. epidermidis (ATCC 12228). In words: Antimicrobial susceptibility, broth dilution. The following applies: Staphylococcus epidermidis, ATCC12228; lowest concentration required to kill. Format: cell-based. The protocol:
as §2

The next assay deals with S. aureus (ATCC 6538P). Put plainly: Antimicrobial susceptibility, broth dilution. The format is cell-based. To be noted: Staphylococcus aureus, ATCC6538P; lowest concentration required to kill. The protocol:
as §2

Assay [5] concerns K. rhizophila (formerly M. luteus) (ATCC 9341). Put plainly: Antimicrobial susceptibility, broth dilution. Format: cell-based. The following applies: Kocuria rhizophila, ATCC9341; lowest concentration required to kill. The protocol:
as §2

By MBC is commonly meant the smallest concentration meeting the test's criterion for killing. A higher MBC goes with less potent killing. Regarding `COc1cc(O)c(CC=C(C)C)c(O)c1C(=O)/C=C/c1ccc(O)cc1` [Xanthohumol (7), Xanthohumol], the “rank of quenching activity against superoxide (SOD), FIG. 2” value in “SOD antioxidant assay” is listed as “highest quenching activity”. In assay [1], the “rank of quenching activity against hydroxyl radical (HORAC), FIG. 2” value was “highest quenching activity”. Further, the “rank of quenching activity against peroxyl radical (ORAC-total), FIG. 2” value in assay [2] is recorded as “highest quenching activity”. Besides, in [3], the “rank of quenching activity against ferric ion (FRAP), FIG. 2” value was “highest quenching activity”. In addition, the MBC against S. pyogenes (ATCC 14289) turned out to be 3 µg/mL (≈ 8.46 µM); with P. acnes (ATCC 6919), 3 µg/mL (≈ 8.46 µM); in [4] it was 10 µg/mL (≈ 28.2 µM); with S. aureus (ATCC 6538P), 100 µg/mL (≈ 282 µM); in [5] it was 10 µg/mL (≈ 28.2 µM).
